The values that follow come from patent US20250163074A1, “CDK Inhibitors And Their Use As Pharmaceuticals” (Prelude Therapeutics Incorporated, priority 2020, published 2025).

Data set [1] concerns MCF7 adenocarcinoma cell line. Nature of the data set: Cell proliferation studies in MCF7 cells (ATP-Lite). In kind it is cell-based. As to conditions: 10 days incubation, cell viability by ATP-Lite luminescence, read-out: PROLIFERATION_CTG_MCF7 IC50. The gist of the method:
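MCF7 cells, seeded at 100 or 200 cells/well, were exposed for 10 days at 37 °C to a 9-point, 3-fold dilution series in quadruplicate, with media exchange and re-dosing on day 5. Viability was read by ATP-Lite luminescence, normalized to background and DMSO, and fitted for IC50.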

The target of the next data set is CDK6/Cyclin D1 (Homo sapiens (Human), UniProt Q00534). Nature of the data set: CDK6/CyclinD1 enzymatic activity assay (TR-FRET). The format is biochemical. As to conditions: CDK6/Cyclin D1 1 nM, ATP 250 μM, read-out: CDK6_D1 IC50. The gist of the method: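 Insect-cell-expressed CDK6/Cyclin D1 (1 nM) phosphorylated ULight-4E-BP1 (100 nM) with 250 μM ATP in HEPES pH 7.4 buffer. After 20 min compound preincubation, reactions were started with 10 mM MgCl2 and run 60 min at 37 °C. EDTA-quenched samples were read by TR-FRET with Eu-anti-P-4E-BP1; IC50 from 9-dose 4-parameter fits.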
Chain of CDK6/Cyclin D1 (Q00534 whole entry): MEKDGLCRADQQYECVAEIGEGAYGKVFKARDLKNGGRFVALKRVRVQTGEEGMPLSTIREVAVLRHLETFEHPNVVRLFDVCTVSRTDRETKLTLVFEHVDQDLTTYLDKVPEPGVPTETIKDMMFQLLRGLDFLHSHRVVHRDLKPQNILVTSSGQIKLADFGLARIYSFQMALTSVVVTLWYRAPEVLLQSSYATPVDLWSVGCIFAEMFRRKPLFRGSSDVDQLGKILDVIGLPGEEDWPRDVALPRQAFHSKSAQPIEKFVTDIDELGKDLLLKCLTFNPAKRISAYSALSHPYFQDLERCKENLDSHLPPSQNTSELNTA
Chain of CDK6/Cyclin D1 (P24385 whole entry partner): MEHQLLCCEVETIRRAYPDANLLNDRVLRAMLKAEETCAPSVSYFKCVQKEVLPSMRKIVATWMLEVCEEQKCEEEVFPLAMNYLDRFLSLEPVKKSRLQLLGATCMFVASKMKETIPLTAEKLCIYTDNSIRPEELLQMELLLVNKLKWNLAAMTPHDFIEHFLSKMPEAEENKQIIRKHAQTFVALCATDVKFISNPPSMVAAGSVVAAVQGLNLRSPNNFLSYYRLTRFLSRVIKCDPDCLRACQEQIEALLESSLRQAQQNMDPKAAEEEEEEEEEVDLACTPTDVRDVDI
In general terms: In TR-FRET formats the signal depends on donor and acceptor labels being close together.

The target in the next data set is CDK4/Cyclin D1 (Homo sapiens (Human), UniProt P11802). The experiment in a line: CDK4/CyclinD1 enzymatic activity assay (TR-FRET). In kind it is biochemical. As to conditions: CDK4/CyclinD1 1 nM, ATP 2 mM, read-out: CDK4_D1 IC50. The method, boiled down: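 Insect-cell CDK4/Cyclin D1 (1 nM) with ULight-4E-BP1 (100 nM) and 2 mM ATP in HEPES pH 7.4 buffer, preincubated 20 min with compound (9-dose, 3-fold dilutions); 10 mM MgCl2 started the reaction, run 60 min at 37 °C. EDTA/Eu-anti-phospho-4E-BP1 TR-FRET detection; IC50 from 4-parameter Hill fit.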
Chain of CDK4/Cyclin D1 (P11802 whole entry): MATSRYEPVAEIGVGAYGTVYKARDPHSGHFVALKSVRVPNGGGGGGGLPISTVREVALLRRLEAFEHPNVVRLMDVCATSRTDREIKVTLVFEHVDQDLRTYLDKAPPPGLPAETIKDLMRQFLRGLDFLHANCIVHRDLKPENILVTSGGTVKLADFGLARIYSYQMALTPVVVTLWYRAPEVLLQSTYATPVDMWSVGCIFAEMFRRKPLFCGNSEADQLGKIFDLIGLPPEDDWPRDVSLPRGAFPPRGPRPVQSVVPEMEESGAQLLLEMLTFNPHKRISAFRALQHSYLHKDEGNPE
Chain of CDK4/Cyclin D1 (P24385 whole entry partner): as the sequence (P24385 whole entry partner) above

Data set [2] can be described thus: Brain-to-plasma ratio determination in Sprague-Dawley rats. The format is in vivo. As to conditions: male Sprague-Dawley rats, four hours after a single oral dose (3, 4, 5, or 10 mg/kg); for Kp at 4 h: rat. As to the method: Example B: Brain-to-Plasma Ratio Determination in Sprague-Dawley Rats
The brain-to-plasma ratio (Kp) was determined in male Sprague-Dawley rats (7-9 weeks old) four hours after a single oral dose. Rats were acclimated and given free access to standard rodent chow and water throughout the entire study. Test articles were formulated as a solution at 0.3, 0.4, 0.5, or 1.0 mg/mL in a vehicle comprised of 10:15:75 (v:v:v) dimethylacetamide (DMA):Solutol HS15:water and delivered orally at a rate of 10 mL/kg to three rats to achieve final doses of 3, 4, 5, or 10 mg/kg, respectively. At 4 hours post-dose, blood samples were collected via jugular vein cannula into tubes containing K2EDTA as the anticoagulant and stored on ice. Blood samples were then centrifuged at 4° C. at 6000 rpm for 5 minutes, and the resulting plasma was placed into tubes and stored frozen at −80° C. until analysis. Whole brain samples were also collected at 4 hours post-dose. The weight of each brain was measured and recorded, and samples were immediately stored on dry ice. Brain samples were then transferred to storage at −80° C. until analysis.
Prior to analysis, brain samples were combined with water (4 mL/1 gram of brain) and homogenized. Prior to injection, plasma and brain homogenate samples and standards were prepared for analysis by precipitation with acetonitrile or 1:1 (v:v) methanol:acetonitrile. Samples were then thoroughly mixed, centrifuged at 4000 rpm for 15 minutes, and the resulting supernatant was transferred for analysis. Test article concentrations in plasma and brain homogenate were then determined by LC-MS/MS and quantified against calibration standards prepared to known concentrations in matched blank (analyte-free) biological matrix. The Kp was then determined by dividing the dilution-corrected brain concentration by the plasma concentration from each rat. A brain density of 1 gram/mL was assumed for all calculations.

Like-named read-outs stand apart in the source and are kept apart here.

The Kp is the ratio of the level in a tissue or fluid to that in plasma or blood. Regarding `CCN1CC2(C1)CN(c1ccc(Nc3ncc(F)c(-c4cc5c(s4)C4(CCCC4)CN(C)C5=O)n3)nc1)C2` [Example 1, 2′-(2-((5-(6-Ethyl-2,6-diazaspiro[3.3]heptan-2-yl)pyridin-2-yl)amino)-5-fluoropyrimidin-4-yl)-5′-methyl-5′,6′-dihydro-4′H-spiro[cyclopentane-1,7′-thieno[3,2-c]pyridin]-4′-one], the IC50 in data set [1] (Homo sapiens, 240 h) is 20 to 200 nM; on CDK6/Cyclin D1 it was at most 20 nM; at CDK4/Cyclin D1 it was at most 20 nM. Besides, in data set [2], the Kp at 4 h lay within 1 to 3.

Turning to `CN1CCC(c2ccc(Nc3ncc(F)c(-c4cc5c(s4)C4(CCCC4)CN(C)C5=O)n3)nc2)CC1` [Example 2, 2′-(5-Fluoro-2-((5-(1-methylpiperidin-4-yl)pyridin-2-yl)amino)pyrimidin-4-yl)-5′-methyl-5′,6′-dihydro-4′H-spiro[cyclopentane-1,7′-thieno[3,2-c]pyridin]-4′-one], the IC50 in data set [1] (Homo sapiens, 240 h) is 20 to 200 nM; at CDK6/Cyclin D1 it was at most 20 nM; at CDK4/Cyclin D1, at most 20 nM. In addition, in data set [2], the Kp at 4 h lay in the range of 1 to 3.

`CCN1CCN(c2ccc(Nc3ncc(F)c(-c4cc5c(s4)C4(CCCC4)CN(C)C5=O)n3)nc2)CC1` [Example 3, 2′-(2-((5-(4-Ethylpiperazin-1-yl)pyridin-2-yl)amino)-5-fluoropyrimidin-4-yl)-5′-methyl-5′,6′-dihydro-4′H-spiro[cyclopentane-1,7′-thieno[3,2-c]pyridin]-4′-one]: the IC50 in data set [1] (Homo sapiens, 240 h) is 20 to 200 nM; at CDK6/Cyclin D1, at most 20 nM; at CDK4/Cyclin D1, at most 20 nM. In addition, in data set [2], the Kp at 4 h was at least 3.

Take `CCN1CC2(C1)CN(c1ccc(Nc3ncc(F)c(-c4cc5c(s4)C4(CCCCC4)CN(C)C5=O)n3)nc1)C2` [Example 4, 2′-(2-((5-(6-Ethyl-2,6-diazaspiro[3.3]heptan-2-yl)pyridin-2-yl)amino)-5-fluoropyrimidin-4-yl)-5′-methyl-5′,6′-dihydro-4′H-spiro[cyclohexane-1,7′-thieno[3,2-c]pyridin]-4′-one]: the IC50 in data set [1] (Homo sapiens, 240 h) is 20 to 200 nM; on CDK6/Cyclin D1, 20 to 200 nM; at CDK4/Cyclin D1 it was at most 20 nM. Also, the Kp at 4 h in data set [2] is 1 to 3.

Regarding `Cc1c(-c2nc(Nc3ccc(C4CCN(C)CC4)cn3)ncc2F)sc2c1C(=O)N(C)C21CC1` [Example 6, 2′-(5-Fluoro-2-((5-(1-methylpiperidin-4-yl)pyridin-2-yl)amino)pyrimidin-4-yl)-3′,5′-dimethylspiro[cyclopropane-1,6′-thieno[2,3-c]pyrrol]-4′(5′H)-one], the IC50 in data set [1] (Homo sapiens, 240 h) was 20 to 200 nM; on CDK6/Cyclin D1, at most 20 nM; at CDK4/Cyclin D1, at most 20 nM. Also, the Kp at 4 h in data set [2] was 1 to 3.

On to `CCN1C(=O)c2c(sc(-c3nc(Nc4ccc(C5CCN(C)CC5)cn4)ncc3F)c2C)C12CC2` [Example 7, 5′-Ethyl-2′-(5-fluoro-2-((5-(1-methylpiperidin-4-yl)pyridin-2-yl)amino)pyrimidin-4-yl)-3′-methylspiro[cyclopropane-1,6′-thieno[2,3-c]pyrrol]-4′(5′H)-one], for which the IC50 in data set [1] (Homo sapiens, 240 h) is 20 to 200 nM; on CDK6/Cyclin D1, at most 20 nM; on CDK4/Cyclin D1 it was at most 20 nM. The Kp at 4 h in data set [2] fell in the range of 1 to 3.

For the compound `CCN1CC2(C1)CN(c1ccc(Nc3ncc(F)c(-c4sc5c(c4C)C(=O)N(C)C54CC4)n3)nc1)C2` [Example 12, 2′-(2-((5-(6-Ethyl-2,6-diazaspiro[3.3]heptan-2-yl)pyridin-2-yl)amino)-5-fluoropyrimidin-4-yl)-3′,5′-dimethylspiro[cyclopropane-1,6′-thieno[2,3-c]pyrrol]-4′(5′H)-one], the IC50 in data set [1] (Homo sapiens, 240 h) is at most 20 nM; at CDK6/Cyclin D1 it was at most 20 nM; on CDK4/Cyclin D1 it was at most 20 nM. The Kp at 4 h in data set [2] is under 1.

On to `Cc1c(-c2nc(Nc3ccc(N4CC5(CCN(C)C5)C4)cn3)ncc2F)sc2c1C(=O)N(C)C21CC1` [Example 14, 2′-(5-Fluoro-2-((5-(6-methyl-2,6-diazaspiro[3.4]octan-2-yl)pyridin-2-yl)amino)pyrimidin-4-yl)-3′,5′-di methyl spiro[cyclopropane-1,6′-thieno[2,3-c]pyrrol]-4′(5′H)-one], for which the IC50 in data set [1] (Homo sapiens, 240 h) is at most 20 nM; on CDK4/Cyclin D1, at most 20 nM. Moreover, the Kp at 4 h in data set [2] fell in the range of 1 to 3.

Turning to `Cc1c(-c2nc(Nc3ccc(C4CCCN(C)C4)cn3)ncc2F)sc2c1C(=O)N(C)C21CC1` (stereo not drawn) [Example 15, 2′-(5-Fluoro-2-((5-(1-methylpiperidin-3-yl)pyridin-2-yl)amino)pyrimidin-4-yl)-3′,5′-dimethylspiro[cyclopropane-1,6′-thieno[2,3-c]pyrrol]-4′(5′H)-one], the IC50 in data set [1] (Homo sapiens, 240 h) was 20 to 200 nM; on CDK4/Cyclin D1 it was at most 20 nM. Besides, the Kp at 4 h in data set [2] lay in the range of 1 to 3.

On to `Cc1c(-c2nc(Nc3ccc(C4CCN(C(C)C)C4)cn3)ncc2F)sc2c1C(=O)N(C)C21CC1` (stereo not drawn) [Example 16, 2′-(5-Fluoro-2-((5-(1-isopropylpyrrolidin-3-yl)pyridin-2-yl)amino)pyrimidin-4-yl)-3′,5′-dimethylspiro[cyclopropane-1,6′-thieno[2,3-c]pyrrol]-4′(5′H)-one], for which the IC50 was 20 to 200 nM in data set [1] (Homo sapiens, 240 h); at most 20 nM at CDK6/Cyclin D1; at most 20 nM on CDK4/Cyclin D1. For the same compound, in data set [2], the Kp at 4 h is under 1.

On to `CCN1C(=O)c2cc(-c3nc(Nc4ccc(C5CCCN(C)C5)cn4)ncc3C)sc2C12CC2` (stereo not drawn) [Example 18, 5′-Ethyl-2′-[5-methyl-2-[[5-(1-methylpiperidin-3-yl)pyridin-2-yl]amino]pyrimidin-4-yl]spiro[cyclopropane-1,6′-thieno[2,3-c]pyrrole]-4′-one], for which the IC50 in data set [1] (Homo sapiens, 240 h) is 20 to 200 nM; on CDK4/Cyclin D1, at most 20 nM. Moreover, the Kp at 4 h in data set [2] fell in the range of 1 to 3.

With `CN1CCC(c2ccc(Nc3ncc(F)c(-c4cc5c(s4)C4(CCCC4)N(C)C5=O)n3)nc2)CC1` [Example 20, 2′-(5-Fluoro-2-((5-(1-methylpiperidin-4-yl)pyridin-2-yl)amino)pyrimidin-4-yl)-5′-methylspiro[cyclopentane-1,6′-thieno[2,3-c]pyrrol]-4′(5′H)-one], the IC50 in data set [1] (Homo sapiens, 240 h) was at most 20 nM; on CDK6/Cyclin D1, at most 20 nM; on CDK4/Cyclin D1, at most 20 nM. Also, the partition ratio (Kp) at 4 h in data set [2] is at least 3.

In the case of `CCN1CC2(C1)CN(c1ccc(Nc3ncc(F)c(-c4cc5c(s4)C4(CCCC4)N(C)C5=O)n3)nc1)C2` [Example 24], the IC50 in data set [1] was 20 to 200 nM; at CDK6/Cyclin D1 it was at most 20 nM; on CDK4/Cyclin D1 it was at most 20 nM. For the same compound, the Kp entry in data set [2] is “++ (a “++” denotes 1.0 ≤ Kp < 3.0)”.

`Cc1c(-c2nc(Nc3ccc(C4CCN(C)CC4)cn3)ncc2F)sc2c1C(=O)N(C)C21CCCC1` [Example 25, 2′-(5-Fluoro-2-((5-(1-methylpiperidin-4-yl)pyridin-2-yl)amino)pyrimidin-4-yl)-3′,5′-dimethylspiro[cyclopentane-1,6′-thieno[2,3-c]pyrrol]-4′(5′H)-one]: the IC50 in data set [1] (Homo sapiens, 240 h) is at most 20 nM; on CDK6/Cyclin D1, at most 20 nM; at CDK4/Cyclin D1, at most 20 nM. The Kp at 4 h in data set [2] is 1 to 3.

On to `Cc1c(-c2nc(Nc3ccc(C4CCN(C)CC4)cn3)ncc2F)sc2c1C(=O)N(C)CC21CC1` [Example 28], for which the IC50 is 20 to 200 nM in data set [1] (Homo sapiens, 240 h); at most 20 nM on CDK6/Cyclin D1; at most 20 nM on CDK4/Cyclin D1. In addition, the Kp at 4 h in data set [2] is at least 3.
